{
  "source": "patent US20140296149A1",
  "about": "“Compositions and Methods for the Treatment of Cardiac Surgery-Associated Acute Kidney Injury with Annexin A1 Peptide” (priority 2010, published 2014)",
  "molecules": {"B1": {"name": "ANXA1: 37 kDa protein, member of the annexin superfamily; about 346 amino acids (SEQ ID NO:2) (protein, listed as Homo sapiens)", "chain": "MAMVSEFLKQAWFIENEEQEYVQTVKSSKGGPGSAVSPYPTFNPSSDVAALHKAIMVKGVDEATIIDILTKRNNAQRQQIKAAYLQETGKPLDETLKKALTGHLEEVVLALLKTPAQFDADELRAAMKGLGTDEDTLIEILASRTNKEIRDINRVYREELKRDLAKDITSDTSGDFRNALLSLAKGDRSEDFGVNEDLADSDARALYEAGERRKGTDVNVFNTILTTRSYPQLRRVFQKYTKYSKHDMNKVLDLELKGDIEKCLTAIVKCATSKPAFFAEKLHQAMKGVGTRHKALIRIMVSRSEIDMNDIKAFYQKMYGISLCQAILDETKGDYEKILVALCGGN"}},
  "key": {"rat model of CPB/CA": {"test_system": "rat model of CPB/CA", "test": "Early renal biomarker GST-μ in rat urine, preclinical model of CPB/CA", "assay_type": "in vivo", "conditions": "setting of myocardial ischemia/reperfusion, n=3, vs vehicle", "description": "FIG. 5. […] Values presented are means±SD; n=3; *p<0.05 vs. Vehicle.\n(§1) NGAL positive staining was abundant in ANXA1sp treated animals and mainly located in the proximal tubule cells (FIG. 3C)."}, "rat model of CPB/DHCA": {"test_system": "rat model of CPB/DHCA", "test": "Preclinical rat model of CPB/DHCA, cardiac-surgery associated AKI (Example I, i.p.)", "assay_type": "in vivo", "description": "FIGS. 1A-B. ANXA1 short peptide (ANXA1sp) treatment ameliorates proximal tubular apoptosis and inhibits the activity of caspase-3 induced by ischemia-reperfusion injury following deep hypothermia circulatory arrest (DHCA). Quantification of apoptosis was determined by terminal deoxynucleotidyl transferase dUTP nick end labeling (TUNEL) staining (A) and the activity of caspase-3 analyzed by Western blot (B) at 24 h after DHCA in rats either treated with ANXA1sp or 0.1% DMSO (vehicle) i.p. Results are shown as mean±SD of six animals in each group. *p<0.002.\nFIGS. 2A-B. Effect of treatment of ANXA1sp after ischemia-reperfusion injury on cell apoptosis and cell proliferation. (A) Treatment with ANXA1sp inhibits apoptosis (TUNEL staining) and enhances proliferation (PCNA staining) induced by ischemia-reperfusion injury following deep hypothermia circulatory arrest (DHCA). Representative sections from 24 hrs after DHCA in rats treated with either ANXA1sp or 0.1% DMSO (vehicle) (original magnification 300×). (B) ANXA1sp tilts the balance of proximal tubular cell fate toward survival after ischemia-reperfusion injury. A ratio of proliferation/apoptosis (TUNEL) was calculated in proximal tubules 24 hrs after DHCA in rats treated with either ANXA1sp or 0.1% DMSO (vehicle). Results were shown as mean±SD of six rats in each group. *p<0.005 versus vehicle.\nFIGS. 3A-C. (A) Protein levels of neutrophil gelatinase associated lipocalin (NGAL) analyzed by Western blot in the kidney 24 hrs after reperfusion following cardiopulmonary bypass (CPB) and deep hypothermic circulatory arrest (DHCA) in vehicle treated animals (Vehicle) versus ANXA1sp treated animals (ANXA1sp). Results are shown as mean±SD. (n=6). *p<0.01 vs. Vehicle. (B) Effect of ANXA1sp on renal NGAL protein levels. Results are representative of six independent experiments in each group. (C) The location of NGAL protein detected by immunohistochemistry in the kidney 24 hrs after reperfusion following DHCA in vehicle treated animals (Vehicle) versus ANXA1sp treated animals (ANXA1sp). NGAL protein was visualized with the NGAL antibody. NGAL positive staining was abundant in ANXA1sp treated animals and mainly located in the proximal tubule cells (red color) (original magnification 200×).\nFIG. 4. ANXA1sp treatment represses the renal levels of TNF-α induced by ischemia-reperfusion injury following deep hypothermia circulatory arrest (DHCA) analyzed by ELISA in the kidney 24 hrs after reperfusion in rats either treated with ANXA1sp (open bar, n=6) or vehicle (0.1% DMSO) i.p. (filled bar, n=6). Results are expressed as mean value±SD; *p<0.05 vs. Vehicle.\nas §1"}, "[1]": {"test_system": "Male Sprague-Dawley rats, CPB/DHCA", "test": "Rat CPB/DHCA, ANXA1sp 2 mg/kg i.v. (Example II)", "assay_type": "in vivo", "description": "Male Sprague-Dawley rats were prepared for 60 min of DHCA at 18° C. and received either vehicle or ANXA1 sp (2 mg/kg) i.v. at one hour before CPB and one hour after reperfusion. Renal tissue and serum samples were harvested at 3 (n=5), 6 (n=3), and 24 hours (n=3) i.v. after CPB/DHCA. The time course of renal activity of NF-kappa B was determined by a rat specific ELISA kit. Changes of renal and serum levels of the proinflammatory cytokines tumor necrosis factor-alpha (TNF-α) and interleukin (IL)-6 as well as myeloperoxidase (MPO) were measured by ELISA. Changes of renal levels of activated caspase-3 were determined by Western blot. At 24 hours after DHCA, apoptotic proximal tubular cells was identified by TUNEL and quantified by counting the numbers of apoptotic proximal tubular cells in 5 representative renal areas."}, "[2]": {"test_system": "myocardial ischemia-reperfusion", "conditions": "several in vitro and in vivo preclinical models; cited from earlier work"}, "[3]": {"test_system": "experimental myocardial ischemia-reperfusion", "conditions": "by attenuating neutrophil migration; cited from earlier work"}, "[4]": {"test_system": "splanchnic artery occlusion and reperfusion injury", "conditions": "by affecting neutrophil migration; cited from earlier work"}, "myocardial I/R injury": {"test_system": "myocardial I/R injury", "conditions": "cited from earlier work"}, "[5]": {"conditions": "6 and 24 h after DHCA, vs vehicle"}},
  "note": "No end group written: not given here.",
  "data": [
    {"molecule": "Ac-Gln-Ala-Trp [ANXA1sp]", "values": [
      {"measurement": "expression of GST-μ in rat urine", "setting": "rat model of CPB/CA", "result": "significantly reduced expression"},
      {"measurement": "numbers of proximal tubular cells (apoptosis, TUNEL staining)", "setting": "rat model of CPB/DHCA; 24 h after DHCA, i.p., vs vehicle, n=6", "result": "reduced numbers"},
      {"measurement": "tubule cell proliferation (PCNA staining)", "setting": "rat model of CPB/DHCA; 24 hrs after DHCA, vs vehicle", "result": "enhanced"},
      {"measurement": "expression of NGAL in the kidney (Western blot)", "setting": "rat model of CPB/DHCA; 24 hrs after reperfusion following CPB and DHCA, vs vehicle", "result": "significantly higher expression"},
      {"measurement": "levels of TNF-α protein in the kidney (ELISA)", "setting": "rat model of CPB/DHCA; 24 hrs after reperfusion, i.p., vs vehicle", "result": "significantly lower levels"},
      {"measurement": "activity of caspase-3 (Western blot)", "setting": "rat model of CPB/DHCA; kidney, 24 h after DHCA, i.p., vs vehicle", "result": "lower activity"},
      {"measurement": "NGAL positive staining (immunohistochemistry)", "setting": "rat model of CPB/DHCA; kidney, 24 hrs after reperfusion, mainly located in proximal tubule cells", "result": "abundant"},
      {"measurement": "balance of proximal tubular cell fate (ratio of proliferation/apoptosis)", "setting": "rat model of CPB/DHCA; proximal tubules, 24 hrs after DHCA, vs vehicle", "result": "tilted the balance of proximal tubular cell fate toward survival"},
      {"measurement": "cardiac-surgery associated acute kidney injury (AKI)", "setting": "rat model of CPB/DHCA; rat CPB/DHCA, vs vehicle (0.1% DMSO)", "result": "significantly attenuates"},
      {"measurement": "AKI following CPB/DHCA", "setting": "[1]", "result": "attenuates"},
      {"measurement": "renal activity of NF-kappa B (ELISA)", "setting": "[1]; 3 and 6 hours after DHCA, vs vehicle", "result": "significant inhibition"},
      {"measurement": "renal levels of IL-6 (ELISA)", "setting": "[1]; [5]", "result": "significantly suppressed"},
      {"measurement": "renal levels of MPO (ELISA)", "setting": "[1]; [5]", "result": "significantly suppressed"},
      {"measurement": "numbers of apoptotic proximal tubular cells (TUNEL)", "setting": "[1]; 24 h after DHCA, vs vehicle", "result": "reduced numbers"},
      {"measurement": "renal levels of TNF-α (ELISA)", "setting": "[1]; 24 hours after DHCA, vs vehicle", "result": "significantly suppressed"},
      {"measurement": "renal activity of caspase-3 (Western blot)", "setting": "[1]; different time points after DHCA, vs vehicle", "result": "significantly decreased"},
      {"measurement": "release of IL-6 in the serum", "setting": "[1]; vs vehicle, data not shown", "result": "significantly reduced release"},
      {"measurement": "release of MPO in the serum", "setting": "[1]; vs vehicle, data not shown", "result": "significantly reduced release"},
      {"measurement": "release of TNF-α in the serum", "setting": "[1]; vs vehicle, data not shown", "result": "significantly reduced release"},
      {"measurement": "cardioprotective efficacy", "setting": "[2]", "result": "robust cardioprotective efficacy"}
    ]},
    {"molecule": "Ac-Ala-Met-Val-Ser-Glu-Phe-Leu-Lys-Gln-Ala-Trp Phe-Ile-Glu-Asn-Glu-Glu-Gln-Glu-Tyr-Val-Gln-Thr-Val-Lys (Ac-AMVSEFLKQAWFIENEEQEYVQTVK) [Ac2-26]", "values": [
      {"measurement": "protection against experimental myocardial ischemia-reperfusion", "setting": "[3]", "result": "protects"},
      {"measurement": "protection against splanchnic artery occlusion and reperfusion injury", "setting": "[4]", "result": "protects"}
    ]},
    {"molecule": "B1", "values": [
      {"measurement": "leukocyte-dependent myocardial damage", "setting": "myocardial I/R injury; myocardial I/R injury", "result": "reduces"},
      {"measurement": "numbers of extravasated leukocytes", "setting": "myocardial I/R injury; rats treated with ANXA1", "result": "significantly lower numbers"}
    ]}
  ]
}
